The source of these data is patent US4906753A, “Preparation of 2,6-disubstituted-5-cyano-4-pyrimidinyloxyacetic acid aldose reductase inhibitors” (American Home Products Corporation, priority 1988, dated 1990).

Read-outs that look alike come from different tables or passages of the source.

Assay [1] concerns the target T1, aldose reductase (Bos taurus, UniProt P16116).
T1 construct: preparation of the enzyme from bovine lens; from tissue; host or cells: bovine lens
Kind of assay: in vitro aldose reductase inhibition (modified Hayman and Kinoshita procedure). Format: biochemical, bovine (lens). Particulars: for inhibition at 10 µM: read-out: % Inhibition IN VITRO 10^-5 M; for inhibition at 1 µM: 10^-6 M; for inhibition at 0.1 µM: 10^-7 M. An excerpt:
In the present case the procedure of Hayman and Kinoshita was modified in that the final chromatography step was omitted in the preparation of the enzyme from bovine lens.

A further assay deals with galactosemic rats. Kind of assay: lowering of dulcitol (galactitol) accumulation in tissues of galactosemic rats. It is filed as in vivo, rat (male Sprague-Dawley). Particulars: for % Lowering dulcitol accumulation IN VIVO, D: Table 1, diaphragm. On the procedure: Such experiments are exemplified hereinbelow after the listing of the following general comments pertaining to these experiments:
Male Sprague-Dawley rats, weighing approximately 90 grams were separated into groups of equal average body weight, with six animals per group. The animals were housed in cages of six animals each and maintained on 12 hour night/12 hour day cycles. Except as otherwise noted, the animals were given food and water ad libitum.
On day 1, the galactosemic control group and all drug-treated groups were given access to 20% galactose chow (Bio-Serv, Frenchtown, NJ). Animals in the control group were given access to 20% glucose chow (Bio-Serv). Test compounds were administered either in the diet or by gavage as a suspension in 2% Tween 80 in saline. In experiments, in which gavage dosing was used, the animals were administered the test compound daily at approximately the same hour each day. Food intake and body weight were determined twice during the course of the experiment. In cases in which the compound was administered in the diet, the average dose was calculated on the basis of the actual average food intake during the experiment.
On the morning of day 5, all animals were fasted; beginning two hours later the animals were decapitated and the lenses, sciatic nerves, and a 50-100 mg portion of the diaphragm were removed, weighed, and frozen in porcelain plates on dry ice.
Only two minor reagent changes were made: (a) the rinsing mixture was an aqueous 5% (w/v) trichloroacetic acid solution and (b) the stock solution was prepared by dissolving 25 mg of dulcitol in 100 mL of an aqueous trichloroacetic acid solution. [N.B.: For each experiment the average value found in the tissue from rats fed the glucose diet was subtracted from the individual values found in the corresponding tissue in galactose-fed rats to obtain the amount of polyol accumulated.]
The figures under L, N and D represent the percentage decrease of galactitol accumulation in the tissues of the lens, sciatic nerve, and diaphragm, respectively, for treated rats as compared to untreated rats.

Assay [2] concerns aldose reductase. Particulars: reported in U.S. Pat. No. 4,568,693; cited from earlier work.

For `N#Cc1c(Cc2cccc3ccccc23)nc(-c2cccc3c(Br)cccc23)nc1OCC(=O)O` [Example 1 (Table 2), [[2-(5-Bromo-1-naphthalenyl)-5-cyano-6-[(1-naphthalenyl)methyl]-4-pyrimidinyl]oxy]acetic Acid], the inhibition (in general, the drop in the measured response relative to a control, in per cent) at 10 µM at aldose reductase [1] (Table 2, 10^-5 M) is 90%. At aldose reductase [1] (Table 2), this compound returned an inhibition at 1 µM of 85% and an inhibition at 0.1 µM of 46%.

As to `CSc1nc(C2CCCCC2)nc(OCC(=O)O)c1C#N` [Example 15 (Table 1)], the inhibition at 10 µM at aldose reductase [1] (Table 1, 10^-5 M) was found to be 90%. Besides, on aldose reductase [1] (Table 1), 1 µM produced 90% inhibition and the inhibition at 0.1 µM was found to be 74%.

As to `CC(C)(C)c1nc(OCC(=O)O)c(C#N)c(SCc2ccc(Br)cc2F)n1` [Example 2 (Table 1)], the “% Lowering dulcitol accumulation IN VIVO, D” value in the assay with galactosemic rats (99 mg/kg) worked out at 47%. In addition, at aldose reductase [1] (Table 1), the inhibition at 1 µM worked out at 93% and the inhibition at 0.1 µM came out at 93%. For the same compound, at aldose reductase [1], the inhibition at 10 µM turned out to be 98%.

On to `CSc1nc(C)nc(OCC(=O)O)c1C#N` [Example 13 (Table 1)], for which the inhibition at 10 µM on aldose reductase [1] (Table 1, 10^-5 M) came to 90%. On aldose reductase [1] (Table 1), this compound registered an inhibition at 1 µM of 84% and an inhibition at 0.1 µM of 55%.

Regarding `CSc1nc(CC(C)(C)C)nc(OCC(=O)O)c1C#N` [Example 4 (Table 1)], the “% Lowering dulcitol accumulation IN VIVO, D” value with galactosemic rats (98 mg/kg) was 22%. In addition, on aldose reductase [1] (Table 1, 10^-5 M), the inhibition at 10 µM came to 95%. Also, on aldose reductase [1] (Table 1), testing at 1 µM gave an inhibition of 96% and at 0.1 µM the inhibition was 85%.

In the case of `N#Cc1c(OCC(=O)O)nc(-c2ccccc2)nc1-c1ccccc1` [Example 4 (Table 2)], the “% Lowering dulcitol accumulation IN VIVO, L” value in the assay with galactosemic rats (Table 2, lens, 100 mg/kg) turned out to be 17%. Moreover, the inhibition at 0.1 µM against aldose reductase [1] (Table 2) is 85%.

On to `CC(C)(C)c1nc(OCC(=O)O)c(C#N)c(SCC2CCCCC2)n1` [Example 1 (Table 1), [[5-Cyano-6-[(cyclohexylmethyl)thio]-2-(1,1-dimethylethyl)-4-pyrimidinyl]oxy]acetic Acid], for which the inhibition at 10 µM on aldose reductase [1] (Table 1, 10^-5 M) was determined as 97%. Also, at aldose reductase [1] (Table 1), 1 µM produced 96% inhibition and testing at 0.1 µM gave an inhibition of 88%.

Take `CCCc1nc(OCC(=O)O)c(C#N)c(SC)n1` [Example 7 (Table 1)]: on aldose reductase [1] (Table 1, 10^-5 M), the inhibition at 10 µM came to 92%. On aldose reductase [1] (Table 1), this compound returned an inhibition at 1 µM of 89% and an inhibition at 0.1 µM of 74%.

With `CSc1nc(-c2ccccc2)nc(OCC(=O)O)c1C#N` [Example 14 (Table 1)], in the assay with galactosemic rats (96 mg/kg), the “% Lowering dulcitol accumulation IN VIVO, D” value was 55%. Besides, the inhibition at 10 µM at aldose reductase [1] (Table 1, 10^-5 M) came out at 92%. On aldose reductase [1] (Table 1), this compound returned an inhibition at 1 µM of 87% and an inhibition at 0.1 µM of 75%.

With `Cc1nc(-c2cccc3ccccc23)nc(OCC(=O)O)c1C#N` [Example 3 (Table 2)], the inhibition at 10 µM on aldose reductase [1] (Table 2, 10^-5 M) worked out at 93%. For the same compound, on aldose reductase [1] (Table 2), the inhibition at 1 µM worked out at 85% and the inhibition at 0.1 µM came out at 46%.

With `N#Cc1c(OCC(=O)O)nc(-c2cccc3ccccc23)nc1-c1ccccc1` [Example 5 (Table 2)], the inhibition at 10 µM at aldose reductase [1] (Table 2, 10^-5 M) amounted to 79%. On aldose reductase [1] (Table 2), this compound showed an inhibition at 1 µM of 76% and an inhibition at 0.1 µM of 53%.

On aldose reductase [1] (Table 1), `CSc1nc(C(C)C)nc(OCC(=O)O)c1C#N` [Example 5 (Table 1)] returned an inhibition at 1 µM of 97% and an inhibition at 0.1 µM of 88%. Moreover, the inhibition at 10 µM at aldose reductase [1] was 98%.

In the case of `CC(C)(C)c1nc(OCC(=O)O)c(C#N)c(SCc2ccc(Br)cc2)n1` [Example 10 (Table 1)], the “% Lowering dulcitol accumulation IN VIVO, D” value with galactosemic rats (135 mg/kg) was found to be 58%. Besides, the inhibition at 10 µM at aldose reductase [1] (Table 1, 10^-5 M) came out at 95%. Further, on aldose reductase [1] (Table 1), the inhibition at 1 µM was 95% and the inhibition at 0.1 µM was determined as 95%.

Regarding `CSc1nc(-c2ccc(Br)cc2)nc(OCC(=O)O)c1C#N` [Example 9 (Table 1)], the “% Lowering dulcitol accumulation IN VIVO, D” value with galactosemic rats (114 mg/kg) came to 27%. Also, the inhibition at 10 µM on aldose reductase [1] (Table 1, 10^-5 M) was 95%. At aldose reductase [1] (Table 1), this compound gave an inhibition at 1 µM of 93% and an inhibition at 0.1 µM of 82%.

Take `CCCCCCSc1nc(C(C)(C)C)nc(OCC(=O)O)c1C#N` [Example 11 (Table 1)]: the “% Lowering dulcitol accumulation IN VIVO, D” value with galactosemic rats (112 mg/kg) was 60%.

In the case of `CSc1nc(Cc2ccccc2)nc(OCC(=O)O)c1C#N`, the inhibition at 10 µM on aldose reductase [1] (Table 1, 10^-5 M) was found to be 91%. For the same compound, at aldose reductase [1] (Table 1), the inhibition at 1 µM is 90% and the inhibition at 0.1 µM worked out at 78%.

Turning to `Cc1nc(-c2ccccc2)nc(OCC(=O)O)c1C#N`, the inhibition at 10 µM on aldose reductase [1] (Table 2, 10^-5 M) was determined as 92%. At aldose reductase [1] (Table 2), this compound displayed an inhibition at 1 µM of 88% and an inhibition at 0.1 µM of 79%.

Turning to `N#Cc1c(OCC(=O)O)nc(C2CCCCC2)nc1SCc1ccccc1` [Example 8 (Table 1)], at aldose reductase [1] (Table 1, 10^-5 M), the inhibition at 10 µM is 95%. On aldose reductase [1] (Table 1), this compound returned an inhibition at 1 µM of 91% and an inhibition at 0.1 µM of 73%.

Consider `CC(C)Sc1nc(C(C)(C)C)nc(OCC(=O)O)c1C#N` [Example 12 (Table 1)], for which, in the assay with galactosemic rats (82 mg/kg), the “% Lowering dulcitol accumulation IN VIVO, D” value is recorded as 19%. Further, the inhibition at 10 µM at aldose reductase [1] (Table 1, 10^-5 M) was found to be 92%. In addition, on aldose reductase [1] (Table 1), the inhibition at 1 µM worked out at 91% and the inhibition at 0.1 µM was found to be 89%.

In the case of `COc1ccc2c(C(=S)N(C)CC(=O)O)cccc2c1C(F)(F)F` [tolrestat, N-[[6-methoxy-5-(trifluoromethyl)-1-naphthalenyl]-thioxomethyl]-N-methylglycine, reference compound], the “inhibitor of aldose reductase” value in the assay with aldose reductase [2] is listed as “effective inhibitor of aldose reductase”.

With `CC(C)(C)c1nc(OCC(=O)O)c(C#N)c(SCc2ccccc2)n1` [Example 16 (Table 1)], the “% Lowering dulcitol accumulation IN VIVO, D” value with galactosemic rats (97 mg/kg) is on record as 67%. In addition, at aldose reductase [1] (Table 1, 10^-5 M), the inhibition at 10 µM is 86%. On aldose reductase [1] (Table 1), this compound registered an inhibition at 1 µM of 85% and an inhibition at 0.1 µM of 82%.

On to `CSc1nc(C(C)(C)C)nc(OCC(=O)O)c1C#N` [Example 3 (Table 1)], for which the “% Lowering dulcitol accumulation IN VIVO, D” value with galactosemic rats (83 mg/kg) is given as 32%. Besides, the inhibition at 10 µM on aldose reductase [1] (Table 1, 10^-5 M) was 89%. In addition, on aldose reductase [1] (Table 1), testing at 1 µM gave an inhibition of 88% and the inhibition at 0.1 µM was determined as 82%.

Consider `CC(C)c1nc(-c2cccc3c(Br)cccc23)nc(OCC(=O)O)c1C#N` [Example 6 (Table 2)], for which the inhibition at 10 µM at aldose reductase [1] (Table 2, 10^-5 M) was determined as 94%. Moreover, on aldose reductase [1] (Table 2), the inhibition at 1 µM stood at 90% and 0.1 µM produced 53% inhibition.

On aldose reductase [1] (Table 1), `CSc1nc(-c2cccs2)nc(OCC(=O)O)c1C#N` [Example 17 (Table 1)] displayed an inhibition at 1 µM of 97% and an inhibition at 0.1 µM of 92%. Also, at aldose reductase [1], the inhibition at 10 µM is 98%.
